From PubChem BioAssay AID1259407 (Chemical Carcinogenesis Research Information System (CCRIS), 2018)
Activity calls are given as the source filed them. How the calls were made is not given here.

System: CCRIS mutagenicity, Ames/micronucleus/aberration tests
Experiment: CCRIS mutagenicity studies

Measured: mutagenic call

C[Si](Cl)Cl
inactive: Test System: AMES SALMONELLA TYPHIMURIUM, Strain/Indicator: TA98, Metabolic Activation: HAMSTER, LIVER, S-9, AROCLOR 1254, Method: PREINCUBATION inactive; negative | Test System: AMES SALMONELLA TYPHIMURIUM, Strain/Indicator: TA98, Metabolic Activation: NONE, Method: PREINCUBATION inactive; negative | Test System: AMES SALMONELLA TYPHIMURIUM, Strain/Indicator: TA98, Metabolic Activation: RAT, LIVER, S-9, AROCLOR 1254, Method: PREINCUBATION inactive; negative | Test System: AMES SALMONELLA TYPHIMURIUM, Strain/Indicator: TA100, Metabolic Activation: HAMSTER, LIVER, S-9, AROCLOR 1254, Method: PREINCUBATION inactive; negative | Test System: AMES SALMONELLA TYPHIMURIUM, Strain/Indicator: TA100, Metabolic Activation: NONE, Method: PREINCUBATION inactive; negative | Test System: AMES SALMONELLA TYPHIMURIUM, Strain/Indicator: TA100, Metabolic Activation: RAT, LIVER, S-9, AROCLOR 1254, Method: PREINCUBATION inactive; negative | Test System: AMES SALMONELLA TYPHIMURIUM, Strain/Indicator: TA1535, Metabolic Activation: HAMSTER, LIVER, S-9, AROCLOR 1254, Method: PREINCUBATION inactive; negative | Test System: AMES SALMONELLA TYPHIMURIUM, Strain/Indicator: TA1535, Metabolic Activation: NONE, Method: PREINCUBATION inactive; negative | Test System: AMES SALMONELLA TYPHIMURIUM, Strain/Indicator: TA1535, Metabolic Activation: RAT, LIVER, S-9, AROCLOR 1254, Method: PREINCUBATION inactive; negative | Test System: AMES SALMONELLA TYPHIMURIUM, Strain/Indicator: TA1537, Metabolic Activation: HAMSTER, LIVER, S-9, AROCLOR 1254, Method: PREINCUBATION inactive; negative | Test System: AMES SALMONELLA TYPHIMURIUM, Strain/Indicator: TA1537, Metabolic Activation: NONE, Method: PREINCUBATION inactive; negative | Test System: AMES SALMONELLA TYPHIMURIUM, Strain/Indicator: TA1537, Metabolic Activation: RAT, LIVER, S-9, AROCLOR 1254, Method: PREINCUBATION inactive; negative | Test System: AMES SALMONELLA TYPHIMURIUM, Strain/Indicator: TA1538, Metabolic Activation: HAMSTER, LIVER, S-9, AROCLOR 1254, Method: PREINCUBATION inactive; negative | Test System: AMES SALMONELLA TYPHIMURIUM, Strain/Indicator: TA1538, Metabolic Activation: NONE, Method: PREINCUBATION inactive; negative | Test System: AMES SALMONELLA TYPHIMURIUM, Strain/Indicator: TA1538, Metabolic Activation: RAT, LIVER, S-9, AROCLOR 1254, Method: PREINCUBATION inactive; negative | Test System: MOUSE LYMPHOMA, Strain/Indicator: L5178Y (TK+/TK-), Metabolic Activation: NONE, Method: SUSPENSION/PLATE inactive; negative. reevaluation of results: negative | Test System: MOUSE LYMPHOMA, Strain/Indicator: L5178Y (TK+/TK-), Metabolic Activation: RAT, LIVER, S-9, AROCLOR 1254, Method: SUSPENSION/PLATE inactive; negative. reevaluation of results: negative
